Measurements reported in US20110124620A1, “SPHINGOSINE 1 PHOSPHATE RECEPTOR MODUATORS AND THEIR USE TO TREAT MUSCLE INFLAMMATION” (priority 2008, published 2011).

System: Primary Human Myotubes
Test: Effect on cytokine-induced atrophy of primary human myotubes (myotube diameter)
Assay type: cell-based
Procedure: In Vitro: Effect on Cytokine-Induced Atrophy of Primary Human Myotubes.
Human skeletal muscle (skMC) cells are obtained from Cambrex (#CC-2561). For experiments skMC stocks are thawed and maintained in SkBM (Lonza CC-3161) containing 20% FCS and 0.1% gentamycin at 37° C., 5% CO2. After 4-5 days cells are seeded for experiments onto six-well plates coated with matrigel (450,000/well) and grown at 37° C., 5% CO2 for one day. Cells are then washed 3× with SkBM and differentiated into myotubes with SkBM containing 1 μM SB431542 (ALK4/5 inhibitor; Sigma #S4317) for 4 days (SB431542 is removed 24 h prior cell treatment). Myotubes are then treated with test compound either in the absence or in the presence of a cytokine cocktail (TNFα 10 ng/ml, IL-1β 2 ng/ml, IFNγ 10 ng/ml) for 24 h in SkBM plus 0.1% gentamycin, washed once with CSB buffer: 80 mM pipes, […], 1 mM MgCl 6H20 and 4% PEG35000 (Fluka #94646) and fixed with 4% paraformaldehyde (Electron Microscopy Sciences #15714) in CSB for 15 min at room temperature. […] Average diameters of at least 40 myotubes are measured for each condition at three points separated by 50 μm along the length of the myotube.

CCc1cc(C(C)=NOCc2ccc(C3CCCCC3)c(C(F)(F)F)c2)ccc1CN1CC(C(=O)O)C1 [Compound A, 1-{4-[1-(4-cyclohexyl-3-trifluoromethyl-benzyloxyimino)-ethyl]-2-ethyl-benzyl}-azetidine-3-carboxylic acid]
effect on cytokine-induced atrophy (myotube diameter) (Compound A 1 nM, cytokine cocktail (TNFα 10 ng/ml, IL-1β 2 ng/ml, IFNγ 10 ng/ml) for 24 h, cocktail alone gives approx. 20% decrease in myotube diameter vs vehicle control): block almost completely the cytokine-induced atrophy | effect on cytokine-induced atrophy (myotube diameter) (higher concentrations of Compound A (above 1 nM), cytokine cocktail for 24 h): exert the same effect
